Patent US8993717B2, “Gadd45beta targeting agents” (Imperial Innovations Limited, priority 2009, dated 2015)
Square brackets hold non-standard residues; d marks the D form. Peptide text beside a SMILES is read from it. * marks the point of attachment. Cbz = O=C(OCc1ccccc1)*

Key:
[1] = tested on: IKK/NF-κB, ERK and p38 pathways; test: Activation of IKK/NF-κB, ERK and p38 pathways in multiple myeloma cells; type: cell-based, human; conditions: data not shown
Gadd45β-inhibited MKK7 = target: T1, Gadd45β-inhibited MKK7 (Homo sapiens, UniProt O14733); test: MKK7 kinase assay in the presence of recombinant hGadd45β; type: biochemical; conditions: 1 nM or 5 nM peptide, 5 μM GST-hGadd45β
T1 construct: expressed in transfected cells; host or cells: HEK-293 (FLAG-MKK7); bacteria (GST-hGadd45β)
T1 sequence (O14733 1-419): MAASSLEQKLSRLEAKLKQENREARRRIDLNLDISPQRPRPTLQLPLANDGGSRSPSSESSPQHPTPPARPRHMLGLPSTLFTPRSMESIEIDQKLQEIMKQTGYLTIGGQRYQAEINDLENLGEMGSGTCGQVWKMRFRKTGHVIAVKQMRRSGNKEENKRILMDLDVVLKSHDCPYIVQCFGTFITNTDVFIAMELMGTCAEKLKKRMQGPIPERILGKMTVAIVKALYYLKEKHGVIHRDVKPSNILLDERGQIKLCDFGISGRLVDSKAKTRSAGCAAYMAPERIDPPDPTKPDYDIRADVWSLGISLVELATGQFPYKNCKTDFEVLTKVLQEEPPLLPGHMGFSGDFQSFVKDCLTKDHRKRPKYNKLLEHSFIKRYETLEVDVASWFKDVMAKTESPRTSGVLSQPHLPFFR
Description: In FIG. 6, transient transfection of pcDNA-FLAG-MKK7 in HEK-293 cells was performed using the method of Ca3(PO4)2 precipitation, essentially as described in Papa, S et al., (2004) Nat. Cell Biol. 6, 146-153 and references therein. 36 hrs after transfection, the cells were treated with 100 ng/ml phorbol 12-myristate 13-acetate (PMA) and 1 μM ionomycin for 30 min at 37° C. Cell extracts were prepared as described in example 4 and used for immunoprecipitation with anti-FLAG antibodies (binding to FLAG-MKK7) as described in Papa, S et al., (2004) Nat. Cell Biol. 6, 146-153 and references therein. Briefly, 50 μg of cell lysate from PMA-ionomycin (P/D-treated or untreated, HEK-293 cells transiently expressing FLAG-MKK7 was incubated with 10 μl of anti-FLAG M2 Affinity Gel (SIGMA) for 4 hrs at 4° C. during rotation. The immunoprecipitates were then washed 3 times in lysis buffer and twice more in kinase buffer (10 mM HEPES, 5 mM MgCl2, 1 mM MnCl2,12.5 mM β-glycerophosphate, 2 mM DTT, 4 mM NaF and 0.1 mM Na3VO4). MKK7 catalytic activity was finally measured in kinase assays by incubating FLAG-MKK7 immunoprecipitates at 30° C. for 20 min with 20 μl of kinase buffer containing 2 μM of recombinant GST-JNK1 and 5 μCi of [γ-^32P]ATP) (kinase reaction), as described in Papa, S et a., (2004) Nat. Cell Biol. 6, 146-153 and references therein.
In some reactions, to test the ability of D-tetrapeptide antagonists to disrupt the Gadd45β-MKK7 interaction and so release the catalytic activity of MKK7 from Gadd45β-afforded inhibition, FLAG-MKK7 immunoprecipitates were 1) first pre-incubated for 10 min at 30° C. with either 1 nM or 5 nM of DTP1, DTP2 or negative control (NC) D-tetrapeptides, NC1, NC2, NC3 and NC4, and 2) then incubated for another 10 min at 30° C. with or without 5 μM of a GST-fusion protein of recombinant human (h)Gadd45β (GST-hGadd45β; purified from bacterial lysates as described in Papa, S., (2007) J. Biol. Chem. 282, 19029-19041), before using them for the kinase reaction described above, as indicated in FIG. 6.
In all cases, kinase reactions were terminated by the addition of Laemmli sample buffer. […] For a further discussion of MKK7 kinase assay conditions, the reader is directed to Papa, S et al., (2007) J. Biol. Chem. 282, 19029-19041 and Papa, S et al., (2004) Nat. Cell Biol. 6, 146-153 and the references therein.

MKK7 = target: T2, MKK7 (Homo sapiens, UniProt O14733); test: MKK7 kinase assay in the absence of Gadd45β; type: biochemical; conditions: 1 nM or 5 nM peptide
T2 construct: expressed in transfected cells; host or cells: HEK-293
T2 sequence (O14733 1-419): T1 sequence (O14733 1-419)
Description: In FIG. 6, transient transfection of pcDNA-FLAG-MKK7 in HEK-293 cells was performed using the method of Ca3(PO4)2 precipitation, essentially as described in Papa, S et al., (2004) Nat. Cell Biol. 6, 146-153 and references therein. 36 hrs after transfection, the cells were treated with 100 ng/ml phorbol 12-myristate 13-acetate (PMA) and 1 μM ionomycin for 30 min at 37° C. Cell extracts were prepared as described in example 4 and used for immunoprecipitation with anti-FLAG antibodies (binding to FLAG-MKK7) as described in Papa, S et al., (2004) Nat. Cell Biol. 6, 146-153 and references therein. Briefly, 50 μg of cell lysate from PMA-ionomycin (P/D-treated or untreated, HEK-293 cells transiently expressing FLAG-MKK7 was incubated with 10 μl of anti-FLAG M2 Affinity Gel (SIGMA) for 4 hrs at 4° C. during rotation. The immunoprecipitates were then washed 3 times in lysis buffer and twice more in kinase buffer (10 mM HEPES, 5 mM MgCl2, 1 mM MnCl2,12.5 mM β-glycerophosphate, 2 mM DTT, 4 mM NaF and 0.1 mM Na3VO4). MKK7 catalytic activity was finally measured in kinase assays by incubating FLAG-MKK7 immunoprecipitates at 30° C. for 20 min with 20 μl of kinase buffer containing 2 μM of recombinant GST-JNK1 and 5 μCi of [γ-^32P]ATP) (kinase reaction), as described in Papa, S et a., (2004) Nat. Cell Biol. 6, 146-153 and references therein. […]

Gadd45β/MKK7 interaction = target: T3, Gadd45β/MKK7 interaction (Homo sapiens, UniProt O14733); test: ELISA competition assay after 48-hr pre-incubation with human serum at 37° C.; type: binding; conditions: for stability after pre-incubation with human serum: result in words
T3 construct: The GST-fused full-length kinase was coated for 16 h at 4° C., at a concentration of 42 nM; made in house
T3 sequence (O14733 1-419): T1 sequence (O14733 1-419)
Description: In FIG. 4, Gadd45β/MKK7 binding, competition ELISA assays were carried out to determine the stability of Z-conjugated D-tetrapeptides in human serum. […] ELISA were performed as described in FIG. 3 C. Briefly, 100 μl of 42 nM of recombinant GST-MKK7 in ELISA buffer (25 mM Tris pH 7.5, 150 mM NaCl, 1 mM DTT, 1 mM EDTA) were coated onto wells of 96-well plates by overnight incubation at 4° C. After blocking with 2% of NFDM for 1 hr at 37° C., plates were washed with TPBS, and then 21 nM of recombinant, biotinylated human (h)Gadd45β were added to the wells together with increasing concentrations of tetrapeptides which had either been subjected or had not been subjected to pre-incubation with human serum, as indicated. For a further discussion of the conditions used for the competition ELISA assay, the reader is directed to Tornatore et al 2008 JMB, 378: 97-111 and the references therein.

Compound | effects on the IKK/NF-κB, ERK and p38 pathways [1] | restoration of MKK7 catalytic activity (Gadd45β-inhibited MKK7) | inhibition of MKK7 catalytic activity in the absence of Gadd45β (MKK7) | IC50 (Gadd45β/MKK7 interaction) [nM] | stability after pre-incubation with human serum (Gadd45β/MKK7 interaction)
CC(=O)N[C@H](Cc1ccc(O)cc1)C(=O)N[C@H](CCCNC(=N)N)C(=O)N[C@H](Cc1ccccc1)C(N)=O [Compound 17, Ac-D-Tyr-D-Arg-D-Phe-NH2] (Ac-[dY]-[dR]-[dF]-NH2) | no effects were observed |  |  |  | 
CC(=O)N[C@H](Cc1ccc(O)cc1)C(=O)N[C@H](CCC(=O)O)C(=O)N[C@H](CCCNC(=N)N)C(=O)N[C@H](Cc1ccccc1)C(N)=O [DTP2, Acetyl-(D-Tyr)-(D-Glu)-(D-Arg)-(D-Phe)-NH2] (Ac-[dY][dE][dR][dF]-NH2) |  | fully restored the catalytic activity of MKK7 | nor the active tetrapeptides, DTP1 and DTP2, afforded any inhibition |  | 
CC(=O)N[C@H](Cc1ccc(O)cc1)C(=O)N[C@H](CC(=O)O)C(=O)N[C@H](Cc1c[nH]cn1)C(=O)N[C@H](Cc1ccccc1)C(N)=O [DTP1, Acetyl-(D-Tyr)-(D-Asp)-(D-His)-(D-Phe)-NH2] (Ac-[dY][dD][dH][dF]-NH2) |  | fully restored the catalytic activity of MKK7 | nor the active tetrapeptides, DTP1 and DTP2, afforded any inhibition |  | 
NC(=O)[C@@H](Cc1ccccc1)NC(=O)[C@@H](Cc1c[nH]cn1)NC(=O)[C@@H](CC(=O)O)NC(=O)[C@@H](Cc1ccc(O)cc1)NC(=O)OCc1ccccc1 [Compound 1, Z-Tyr-Asp-His-Phe-NH2] (Cbz-[dY][dD][dH][dF]-NH2) | no effects were observed |  |  | 0.19 | completely stable
N=C(N)NCCC[C@@H](NC(=O)[C@@H](CCC(=O)O)NC(=O)[C@@H](Cc1ccc(O)cc1)NC(=O)OCc1ccccc1)C(=O)N[C@H](Cc1ccccc1)C(N)=O [Compound 9, Z-D-Tyr-D-Glu-D-Arg-D-Phe-NH2] (Cbz-[dY][dE][dR][dF]-NH2) |  |  |  | 0.18 | completely stable
